From patent US20020192159A1, “Single-patient drug trials used with accumulated database: flowchart” (priority 2001, published 2002)
Structures can show the parent of a compound that is named as a salt.

Key:
[1] = system: patient with perennial allergic rhinitis; conditions: for incidence of sedation: day 4 of treatment
[2] = system: individual patient; assay: SPAS abuse potential test (liking score vs placebo or comparator); conditions: for liking score difference vs placebo: person
Description: Single-patient drug kits can be designed to test for “liking scores,” “abuse potential scores,” and patient's desire to re-use the test article compared to placebo and positive controls.
In this example, the abuse potential of the narcotic analgesic codeine is tested. A single-patient trial is conducted in a patient for whom treatment with codeine is deemed appropriate. The patient receives a SPAS test kit containing codeine, an alternative drug, e.g., ibuprofen and a questionnaire designed to elicit the liking score, desirability to re-use test article and abuse potential of the patient to codeine.
In another example, in follow-up to the test above, the clinician compares diazepam to secobarbital in the same patient.

[3] = system: previously tested similar patients; assay: follow-up of previously tested similar patients in the database (addiction / smoking)
[4] = system: hyperactive child (Minimum Brain Dysfunction or Attention Deficit Disorder); assay: SPAS single-patient drug trial of methylphenidate vs placebo
Description: The usefulness of methylphenidate (Ritalin) treatment in a hyperactive child (Minimum Brain Dysfunction or Attention Deficit Disorder) is evaluated.
Technology: Consists of instructions, “calendar” packaging for drug and a substantially identical looking placebo to assure appropriate dosing and monitoring of compliance, questionnaires and assessment forms and instructions. […] Results are mailed to the physician and, in this case, parent for use in evaluating the usefulness of the therapy. The physician and parent are contacted, e.g., every three months to provide data on therapies utilized, and perceived outcome, until the condition is resolved.
The questionnaire portion of the kit includes an initial consent form for the parent or guardian to complete. The questionnaire also provides background information on the study and possible side effects associated with the medication. Also included therein is a form for providing relevant patient and family histories. More importantly, the questionnaire, in this case includes a portion for the weekly input by parents/guardians and school observers for answers to questions relating to the drug evaluation. Physician questionnaires are similarly arranged.
The trial calls for 40 mg to be given daily as 10 mg four times daily compared to identical appearing placebo which is also given four times daily. After completing the trial and questionnaire, the data is processed to statistically determine the results.

[5] = system: patients with the same disorder (hyperactive child); assay: pooled SPAS data and follow-up of patients continued on methylphenidate 40 mg daily; assay type: in vivo, human
Description: All results obtained from the data are compared against the results provided by data amassed from a pool of about 200 patients with the same disorder. If, of these 200 patients, 55 experience encouraging results (along with the current patient) they are continued on 40 mg daily treatment. If, of these 55 patients, 5 are lost to follow-up, with 50 remaining for prospective evaluation, the physician continues the patient on 40 mg methylphenidate daily based solely on the isolated SPAS single-patient drug trial results. The physician then reviews the pooled data on the 50 patients. This will be done to understand under what circumstances this individual patient is likely to continue to show benefit from methylphenidate 40 mg treatment, and what conditions lead to treatment failure.
If for example, the pool of 50 patients who continue treatment have the following scores following the original SPAS testing:
All 50 patients are followed up by telephone interview monthly for nine months or more, and outcomes are prospectively documented.
The continuing validation process using pooled data, which is a subject of this invention, provides additional data essential to formulating a rational therapeutic decision.

[6] = system: hypertensive person; assay: double-blind single-patient trial of verapamil as therapeutic alternative to propranolol; assay type: in vivo, human; conditions: for mean systolic blood pressure increases: end of six week trial, verapamil SR 240 mg vs propranolol SR 180 mg once daily, statistically insignificant; for mean systolic blood pressure increases / mean diastolic pressure: little difference between drugs; for mean diastolic pressure: throughout six week trial
Description: In this example, the validity of using a sustained release formulation of verapamil 240 mg once daily as a therapeutic alternative to sustained release propranolol 180 mg once daily in a hypertensive person is shown. The trial during which the two medications are randomly administered in a double-blind manner is six weeks. The questionnaire used is set up in a manner similar to that described in above examples except that the questions elicit information related to the disease of hypertension. Blood pressure and adverse event reports are taken daily by the patient. […] Sleepiness is reported at equal rates for both drugs. All values are statistically insignificant and the therapeutic alternative selection is objectively validated.

[7] = patients with statistically altered sleep patterns, within two months
[8] = pool of 50 patients who continue treatment

In the case of CCOC(=O)N1CCC(=C2c3ccc(Cl)cc3CCc3cccnc32)CC1 [CL, loratidine], the incidence of sedation ([1]; person) was 2 on a 3 point scale.

In the case of CN(C)CCC(c1ccc(Cl)cc1)c1ccccn1 (centres unmarked) [CM, chlorpheniramine maleate], the “patient's symptoms at reevaluation” value ([1]; 6 and 12 months post-initiation of CM treatment) was “well maintained”, the “similar patients well maintained during a year long follow-up” value ([1]; database patients placed on CM after single-patient trials) was 37 of the 40 and the incidence of sedation ([1]; person) was 2 on a 3 point scale. The “control of most bothersome symptom, sneezing” value ([1]; person, perennial allergic rhinitis) was “similarly and effectively controlled”.

For COc1ccc2c3c1O[C@H]1[C@@H](O)C=C[C@H]4[C@@H](C2)N(C)CC[C@@]341 [codeine], the liking score ([2]; patient on codeine) was 3 out of 5, the “liking score difference vs placebo” value ([2]; statistically significant (Bayesian feedback)) was 2 units and the “patients who became addicted” value ([3]; Caucasian female patients 30 to 40 years with similar 0 unit difference) was 10 out of 1250. For the same molecule, the “patients who became addicted” value ([3]; black male patients 40 to 50 years old with similar 2-unit difference, treated with codeine) was 25 out of 600, the “patients who became addicted” value ([3]; similar patients with 2 unit differences, within three months) was “Twenty” and the “patients who became addicted” value ([3]; similar patients with 3 unit differences) was 50 out of 110.

In the case of CN1C(=O)CN=C(c2ccccc2)c2cc(Cl)ccc21 [diazepam], the liking score ([2]; patient on diazepam) was 4 out of 5, the “liking score difference vs placebo” value ([2]; not statistically significant) was 0 units and the “level of addiction on follow-up of similar patients” value [3] was “comparatively low level of addiction”.

With COC(=O)C(c1ccccc1)C1CCCCN1 (centres unmarked) [methylphenidate] the “patient's attention span” value ([4]; 40 mg daily as 10 mg four times daily vs placebo, methylphenidate periods) was “improved substantially”, the sleep patterns ([4]; 40 mg daily, methylphenidate periods) was “statistically altered” and the teacher comments ([4]; methylphenidate dosing periods) was “corroborate improved attention span”. The “follow-up outcome, patients with no statistically altered sleep disturbances” value ([5]; monthly telephone interview for nine months or more, 40 mg daily) was “well maintained”, the “patients who experience encouraging results” value ([5]; of a pool of about 200 patients with the same disorder) was 55 and the “patients experiencing grand mal seizures” value [5, 7] was “two”. The “patients showing severe episodes of bizarre behaviors” value [5, 7] was 90%, the “Sleep Patterns: have been statistically altered” value [5, 8] was 50% have been statistically altered and the “Sleep Patterns: have not been statistically altered” value [5, 8] was 50% have not been statistically altered. The “Teacher Comments: corroborate improved attention span” value [5, 8] was 80% corroborate improved attention span, the “Teacher Comments: do not corroborate improved attention span” value [5, 8] was 20% do not corroborate improved attention span and the “Attention Span: have substantial improvement” value ([5]; pool of 50 patients who continue treatment, scores following original SPAS testing) was 100% have substantial improvement. The “follow-up outcome, patients with statistically altered sleep patterns” value ([5]; within two months, 40 mg daily) was “loss of symptom control”.

For CN1CCCC1c1cccnc1 (centres unmarked) [nicotine], the liking score ([2]; on average, patient receiving nicotine) was 4 out of 5, the “liking score difference vs placebo” value ([2]; statistically significant) was 3 units and the “patients who are smokers” value ([3]; female Caucasian patients 15 to 17 years old with similar 3-unit difference) was 820 out of 975.

In the case of CC(C)NCC(O)COc1cccc2ccccc12 (centres unmarked) [propranolol], the “mean systolic blood pressure increases” value [6] was 3%, the sleepiness reported ([6]; human, in vivo) was “equal rates” and the mean diastolic pressure [6] was “essentially stable”.

In the case of C=CCC1(C(C)CCC)C(=O)NC(=O)NC1=O (centres unmarked) [secobarbital], the “difference in liking scores, diazepam vs secobarbital” value ([2]; same person, statistically significant difference) was “greater addiction potential” and the “level of addiction on follow-up of similar patients” value [3] was “high level of addiction”.

COc1ccc(CCN(C)CCCC(C#N)(c2ccc(OC)c(OC)c2)C(C)C)cc1OC (centres unmarked) [verapamil] was tested, and the “mean systolic blood pressure increases” value [6] was 3%, the sleepiness reported ([6]; six week trial, both drugs) was “equal rates” and the mean diastolic pressure [6] was “essentially stable”.
